Reference: patent US20260295053A1, “COMPOUNDS FOR DEGRADATION AND INHIBITION OF KRAS (G12D) PROTEIN” (Shenzhen Ionova Life Science Co., Ltd., priority 2023, published 2026)

Biological target: T1, KRAS (G12D) (Homo sapiens, UniProt P01116, G12D)
T1 construct: in-cell western with KRAS G12D antibody after 24 h
Experiment: KRAS (G12D) cellular degradation assay in AsPC-1 cells
Assay type: cell-based
Conditions: 24 hours, antibody fluorescence (Odyssey CLX), DC50 half-maximal degradation concentration
Description: ASPC-1 and PK-59 cellular assays ASPC-1 (ATCC cat. CRL-1682) and PK-59 (Nanjing Cobioer, Cat. No. CBP61184) were used in KRAS cellular degradation, pERK inhibition and proliferation assays. The two cell lines were maintained following vendor's instructions. For monitoring KRAS (G12D) cellular degradation and pERK biomarker inhibition, cells were seeded into a 96-well plate with 22,000 and 16,000 cells/well for assays in ASPC-1 and PK-59, respectively. Cells were incubated at 37° C. with 5% CO2 and cell density was monitored until ^~90% confluency was reached. Compounds were serially diluted at a 1:3 ratio and dispensed into each well at final concentrations ranging from […] to 1.5 nM. After incubation for 24 hours, the culture media were removed and the cells were subjected to fixation, permeabilization and blocking (Intercept blocking buffer, Li-cor). For KRAS (G12D) degradation, the cells were treated with primary antibody (KRAS G12D antibody, Cell Signaling Technologies, Cat. No. CST14429) and for β-actin (β-actin mAb, Beyotime, Cat. No. AF-5001), and followed by secondary antibodies, Anti-rabbit IgG (H+L) (DyLight™ 800 4×PEG Conjugate) or IRDye® 680RD Goat anti-Mouse IgG. For pERK inhibition assay, cells were treated with primary antibodies for pERK (Phospho-p44/42 MAPK (Erk1/2) (Thr202/Tyr204) (D13.14.4E) XP® Rabbit mAb, Cell Signaling Technologies, Cat. No. CST-4370) and β-actin (β-actin mAb, Beyotime, Cat. No. AF-5001), and followed by secondary antibodies, Anti-rabbit IgG (H+L) (DyLight™ 800 4×PEG Conjugate) or IRDye® 680RD Goat anti-Mouse IgG. Fluorescence signals were read on Odyssey CLX instrument. For cell proliferation assays, cells were seeded into a 96-well plate at 3,500 and 800 cells/well for assays in ASPC-1 and PK-59, respectively. Cells were incubated at 37° C. with 5% CO2 for overnight. Compounds were serially diluted at a 1:3 ratio and dispensed into each well at final concentrations ranging from […] to 1.5 nM. After incubation for 6 days, cell viability reagent (CellTiter Glo, Promega, Cat. No. G7573) was added to each well and luminescence was recorded on Molecular Devices Spectramax iD3 instrument. IC50, half-maximal inhibitory concentration for pERK inhibition or cell proliferation, and DC50, half-maximal degradation concentration in KRAS (G12D) cellular degradation were determined by fitting the corresponding dose response curves using GraphPad Prism software.
Wherein “A” means the value <10 nM, “B” means 10 nM<the value <100 nM, “C” means 100 nM<the value <1000 nM, and “D” means the value >1000 nM, in which, the value means the value of DC50 or IC50. NT means not tested.

T1 sequence (P01116 1-188 isoform P01116-2 G12D): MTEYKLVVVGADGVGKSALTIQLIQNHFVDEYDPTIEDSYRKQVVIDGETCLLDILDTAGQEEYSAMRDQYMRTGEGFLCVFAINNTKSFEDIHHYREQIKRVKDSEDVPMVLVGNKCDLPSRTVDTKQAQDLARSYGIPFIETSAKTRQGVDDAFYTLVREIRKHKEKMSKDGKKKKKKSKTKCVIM

Row | SMILES | DC50
1 | CCn1ncc2c(C#C[C@H](CO)NC(=O)[C@@H]3C[C@@H](O)CN3C(=O)[C@H](C(C)C)n3cc(-c4ccc(COc5c(-c6c(C)c(F)cc7[nH]ncc67)c(C6CC6)cc6c(N7C[C@@H]8C[C@H]7CN8)nc(O[C@H]7C[C@@H](OC)C7)nc56)cc4)nn3)cccc21 [Example 163, (2S,4R)-1-((2S)-2-(4-(4-(((4-((1S,4S)-2,5-diazabicyclo[2.2.1]heptan-2-yl)-6-cyclopropyl-2-((1r,3R)-3-methoxycyclobutoxy)-7-(6-fluoro-5-methyl-1H-indazol-4-yl)quinazolin-8-yl)oxy)methyl)phenyl)-1H-1,2,3-triazol-1-yl)-3-methylbutanoyl)-N—((R)-4-(1-ethyl-1H-indazol-4-yl)-1-hydroxybut-3-yn-2-yl)-4-hydroxypyrrolidine-2-carboxamide] | 10 to 100 nM
2 | CO[C@@H](C)COc1nc(N2C[C@@H]3C[C@H]2CN3)c2cc(C3CC3)c(-c3c(C)c(F)cc4[nH]ncc34)c(OCc3ccc(-c4cn([C@H](C(=O)N5C[C@H](O)C[C@H]5C(=O)N[C@H](C#Cc5cc(F)cc(F)c5)CO)C(C)C)nn4)cc3)c2n1 [Example 141, (2S,4R)-1-((2S)-2-(4-(4-(((4-((1S,4S)-2,5-diazabicyclo[2.2.1]heptan-2-yl)-6-cyclopropyl-7-(6-fluoro-5-methyl-1H-indazol-4-yl)-2-((S)-2-methoxypropoxy)quinazolin-8-yl)oxy)methyl)phenyl)-1H-1,2,3-triazol-1-yl)-3-methylbutanoyl)-N—((R)-4-(3,5-difluorophenyl)-1-hydroxybut-3-yn-2-yl)-4-hydroxypyrrolidine-2-carboxamide] | 10 to 100 nM
3 | CCn1nccc1-c1ccc([C@H](CO)NC(=O)[C@@H]2C[C@@H](O)CN2C(=O)[C@H](C(C)C)n2cc(-c3ccc(COc4c(-c5c(C)c(F)cc6[nH]ncc56)c(C5CC5)cc5c(N6CCCC(C#N)CC6)nc(OC[C@H](C)OC)nc45)cc3)nn2)cc1 (stereo partly drawn) [Example 182, (2S,4R)-1-((2S)-2-(4-(4-(((4-(4-cyanoazepan-1-yl)-6-cyclopropyl-7-(6-fluoro-5-methyl-1H-indazol-4-yl)-2-((S)-2-methoxypropoxy)quinazolin-8-yl)oxy)methyl)phenyl)-1H-1,2,3-triazol-1-yl)-3-methylbutanoyl)-N—((R)-1-(4-(1-ethyl-1H-pyrazol-5-yl)phenyl)-2-hydroxyethyl)-4-hydroxypyrrolidine-2-carboxamide] | 10 to 100 nM
4 | CO[C@@H](C)COc1nc(N2C[C@@H]3C[C@H]2CN3)c2cc(C3CC3)c(-c3c(C)c(F)cc4[nH]ncc34)c(OCc3ccc(-c4cn([C@H](C(=O)N5C[C@H](O)C[C@H]5C(=O)N[C@H](C#Cc5cccc6c5ncn6C)CO)C(C)C)nn4)cc3)c2n1 [Example 140, (2S,4R)-1-((2S)-2-(4-(4-(((4-((1S,4S)-2,5-diazabicyclo[2.2.1]heptan-2-yl)-6-cyclopropyl-7-(6-fluoro-5-methyl-1H-indazol-4-yl)-2-((S)-2-methoxypropoxy)quinazolin-8-yl)oxy)methyl)phenyl)-1H-1,2,3-triazol-1-yl)-3-methylbutanoyl)-4-hydroxy-N—((R)-1-hydroxy-4-(1-methyl-1H-benzo[d]imidazol-4-yl)but-3-yn-2-yl)pyrrolidine-2-carboxamide] | 10 to 100 nM
5 | CO[C@@H](C)COc1nc(N2C[C@@H]3C[C@H]2CN3)c2cc(C3CC3)c(-c3c(C)c(F)cc4[nH]ncc34)c(OCc3ccc(-c4cn([C@H](C(=O)N5C[C@H](O)C[C@H]5C(=O)N[C@H](C#Cc5cncc6nn(C)cc56)CO)C(C)C)nn4)cc3)c2n1 [Example 185, (2S,4R)-1-((2S)-2-(4-(4-(((4-((1S,4S)-2,5-diazabicyclo[2.2.1]heptan-2-yl)-6-cyclopropyl-7-(6-fluoro-5-methyl-1H-indazol-4-yl)-2-((S)-2-methoxypropoxy)quinazolin-8-yl)oxy)methyl)phenyl)-1H-1,2,3-triazol-1l-yl)-3-methylbutanoyl)-4-hydroxy-N—((R)-1-hydroxy-4-(2-methyl-2H-pyrazolo[3,4-c]pyridin-4-yl)but-3-yn-2-yl)pyrrolidine-2-carboxamide] | 10 to 100 nM
6 | CO[C@@H](C)COc1nc(N2C[C@@H]3C[C@H]2CN3)c2cc(C3CC3)c(-c3c(C)c(F)cc4[nH]ncc34)c(OCc3ccc(-c4cn([C@H](C(=O)N5C[C@H](O)C[C@H]5C(=O)N[C@H](C#Cc5ccnc6nn(C)cc56)CO)C(C)C)nn4)cc3)c2n1 [Example 191, (2S,4R)-1-((2S)-2-(4-(4-(((4-((1S,4S)-2,5-diazabicyclo[2.2.1]heptan-2-yl)-6-cyclopropyl-7-(6-fluoro-5-methyl-1H-indazol-4-yl)-2-((S)-2-methoxypropoxy)quinazolin-8-yl)oxy)methyl)phenyl)-1H-1,2,3-triazol-1-yl)-3-methylbutanoyl)-4-hydroxy-N—((R)-1-hydroxy-4-(2-methyl-2H-pyrazolo[3,4-b]pyridin-4-yl)but-3-yn-2-yl)pyrrolidine-2-carboxamide] | 10 to 100 nM

Results, then the compound that gave them:

Row | DC50 | SMILES
7 | < 10 nM | CCn1nccc1-c1ccc([C@H](CO)NC(=O)[C@@H]2C[C@@H](O)CN2C(=O)[C@H](C(C)C)n2cc(-c3ccc(COc4c(-c5c(C)c(F)cc6[nH]ncc56)c(C5CC5)cc5c(N6C[C@@H]7C[C@H]6CN7)nc(N6CCC(OC)CC6)nc45)cc3)nn2)cc1 [Example 124, (2S,4R)-1-((2S)-2-(4-(4-(((4-((1S,4S)-2,5-diazabicyclo[2.2.1]heptan-2-yl)-6-cyclopropyl-7-(6-fluoro-5-methyl-1H-indazol-4-yl)-2-(4-methoxypiperidin-1-yl)quinazolin-8-yl)oxy)methyl)phenyl)-1H-1,2,3-triazol-1-yl)-3-methylbutanoyl)-N—((R)-1-(4-(1-ethyl-1H-pyrazol-5-yl)phenyl)-2-hydroxyethyl)-4-hydroxypyrrolidine-2-carboxamide]
8 | < 10 nM | CCn1nccc1-c1ccc([C@H](CO)NC(=O)[C@@H]2C[C@@H](O)CN2C(=O)[C@H](C(C)C)n2cc(-c3ccc(COc4c(-c5c(C)c(F)cc6[nH]ncc56)c(C5CCC5)cc5c(N6C[C@@H]7C[C@H]6CN7)nc(OC6CCC7(CC6)COC7)nc45)cc3)nn2)cc1 [Example 137, (2S,4R)-1-((2S)-2-(4-(4-(((2-((2-oxaspiro[3.5]nonan-7-yl)oxy)-4-((1S,4S)-2,5-diazabicyclo[2.2.1]heptan-2-yl)-6-cyclobutyl-7-(6-fluoro-5-methyl-1H-indazol-4-yl)quinazolin-8-yl)oxy)methyl)phenyl)-1H-1,2,3-triazol-1-yl)-3-methylbutanoyl)-N—((R)-1-(4-(1-ethyl-1H-pyrazol-5-yl)phenyl)-2-hydroxyethyl)-4-hydroxypyrrolidine-2-carboxamide]
9 | < 10 nM | CO[C@@H](C)COc1nc(N(C)[C@H]2CCNC2)c2cc(C3CC3)c(-c3c(C)c(F)c(F)c4[nH]ncc34)c(OCc3ccc(-c4cn([C@H](C(=O)N5C[C@H](O)C[C@H]5C(=O)N[C@H](c5ccc(-c6scnc6C)cc5)C(C)O)C(C)C)nn4)cc3)c2n1 (stereo in doubt) [Example 145, (2S,4R)-1-((2S)-2-(4-(4-(((6-cyclopropyl-7-(6,7-difluoro-5-methyl-1H-indazol-4-yl)-2-((S)-2-methoxypropoxy)-4-(methyl((S)-pyrrolidin-3-yl)amino)quinazolin-8-yl)oxy)methyl)phenyl)-1H-1,2,3-triazol-1-yl)-3-methylbutanoyl)-4-hydroxy-N-((1R,2R)-2-hydroxy-1-(4-(4-methylthiazol-5-yl)phenyl)propyl)pyrrolidine-2-carboxamide]
10 | < 10 nM | CCn1nccc1-c1ccc([C@H](CO)NC(=O)[C@@H]2C[C@@H](O)CN2C(=O)[C@H](C(C)C)n2cc(-c3ccc(COc4c(-c5c(C)c(F)cc6[nH]ncc56)c(C5CC5)cc5c(N(C)C[C@@H]6CCCN6)nc(OC[C@H](C)OC)nc45)cc3)nn2)cc1 [Example 228, (2S,4R)-1-((2S)-2-(4-(4-(((6-cyclopropyl-7-(6-fluoro-5-methyl-1H-indazol-4-yl)-2-((S)-2-methoxypropoxy)-4-(methyl(((S)-pyrrolidin-2-yl)methyl)amino)quinazolin-8-yl)oxy)methyl)phenyl)-1H-1,2,3-triazol-1-yl)-3-methylbutanoyl)-N—((R)-1-(4-(1-ethyl-1H-pyrazol-5-yl)phenyl)-2-hydroxyethyl)-4-hydroxypyrrolidine-2-carboxamide]
